In patent publication US4336192A, “5,6-Dihydro-11-alkylene-morphanthridin-6-ones” (BASF Aktiengesellschaft, priority 1979, dated 1982):
“Also recorded” adds a separate entry of the source. Where a name gives a salt, the structure may show the parent alone. Read-outs that look alike come from different tables or passages of the source.

Tests used:
female NMRI mice [1] = test: Sedative effect: orientation hypermotility in a new environment, measured photoelectrically; assay type: in vivo; details: for ED50: Mus musculus, 0.5 h, read-out: Sedative effect ED 50%, oral, female NMRI mice, dose which reduces orientation hypermotility by 50% vs untreated controls, 30 min after administration; for Sedative effect (in words): result in words
Method: The substances are administered orally to groups of 4×3 or 8×3 female NMRI mice. The orientation hypermotility induced by a new environment is determined photoelectrically, 30 minutes after the administration of the substances, for a period of 30 minutes.

female NMRI mice [2] = test: Analgesic effect: D'amour and Smith tail-flick method; assay type: in vivo; details: for Analgesic effect (in words): result in words
Method: The analgesic effect is determined by means of the D'amour and Smith (1941) tail-flick method. In this, the substances are administered intraperitoneally to groups of 10 female NMRI mice. The pain reaction is triggered 30 minutes after administration. The reaction time, until the tail is flicked out of the way after exposure to a focused light beam, is measured.

[3] = tested on: female Sprague-Dawley rats; test: Apomorphine-antagonistic effect: apomorphine-triggered jaw motions (mandibulogram); assay type: in vivo; details: for ED50: Rattus norvegicus, sc, read-out: Apomorphine antagonism ED 50%, female Sprague-Dawley rats, 1.5 mg of apomorphine/kg s.c., dose which reduces number of jaw movements by 50%; for Apomorphine-antagonistic effect (in words): result in words
Method: 4. Apomorphine-antagonistic effect
Jaw motions are triggered in groups of 4-6 female Sprague-Dawley rats by subcutaneous administration of 1.5 mg of apomorphine/kg, and are recorded by means of implanted electrodes (KUBACKI mandibulogram, 1978).

Acute toxicity = details: mouse, in vivo, ip, read-out: Toxicity LD 50
Method: The substances are administered intraperitoneally to groups of 5-10 female NMRI mice.

female NMRI mice [4] = test: Anti-cholinergic effect: protection against death from Physostigmin; assay type: in vivo; details: for ED50: Mus musculus, read-out: Anti-cholinergic effect ED 50%, oral, 30 min before Physostigmin 0.825 mg/kg s.c., female NMRI mice, dose which protects 50% of animals against death; for Anti-cholinergic effect (in words): result in words, Physostigmin antagonism; for Anti-cholinergic effect R.A. (relative activity): Clozapin = 1.00
Method: 3. Anti-cholinergic effect
A lethal dose (0.825 mg/kg) of Physostigmin is administered subcutaneously to groups of 10 female NMRI mice. The test substances are administered orally 30 minutes before administering the Physostigmin.

[5] = intraperitoneal, female NMRI mice, dose which causes death of 50% of animals

SMILES | ED50 (female NMRI mice [1]) | Sedative effect (in words) (female NMRI mice [1]) | Analgesic effect (in words) (female NMRI mice [2]) | ED50 [3] | Apomorphine-antagonistic effect (in words) [3] | LD50 (Acute toxicity) | ED50 (female NMRI mice [4]) | Anti-cholinergic effect (in words) (female NMRI mice [4]) | LD50 (Acute toxicity; [5]) | Anti-cholinergic effect R.A. (relative activity) (female NMRI mice [4]) | Analgesic effect R.A. (relative activity) (female NMRI mice [2]; relative activity, Clozapin = 1.00) | Analgesic effect ED 100% (female NMRI mice [2]; intraperitoneal, female NMRI mice, dose which lengthens tail-flick reaction time by 100% vs control, 30 min after administration)
CN1CCN(C2=Nc3ccccc3C(=CC#N)c3ccccc32)CC1 (mixture of isomers) [Example 17 (cis-trans mixture), cis,trans-11-cyanomethylene-6-(4-methyl-piperazin-1-yl)-morphanthridine] | 2.78 mg/kg | relatively strong sedative effects; also recorded: more strongly sedative | not analgesically active | 22 mg/kg | somewhat weaker than that of Clozapin | 121 mg/kg | 6.26 mg/kg | manifests itself especially; also recorded: more strongly sedative and anti-cholinergic | – | – | – | –
Cc1ccc2c(c1)N=C(N1CCN(C)CC1)c1ccccc1C2=CC#N (mixture of isomers) [Example 30 (cis-trans mixture), cis,trans-3-Methyl-11-cyanomethylene-6-(4-methylpiperazin-1-yl)-morphanthridine] | 0.804 mg/kg | strong sedative effects; also recorded: high sedative activity (greater than that of Clozapin and Perlapin) | An analgesic effect is found; also recorded: stronger analgesic effect | 35 mg/kg | – | – | 31.2 mg/kg | moderate anti-cholinergic effect | 178 mg/kg | 0.45 | – | –
Cc1ccc2c(c1)C(=CC#N)c1ccccc1C(N1CCN(C)CC1)=N2 (mixture of isomers) [Example 31 (cis-trans mixture), cis,trans-2-Methyl-11-cyanomethylene-6-(4-methylpiperazin-1-yl)-morphanthridine] | 3.35 mg/kg | relatively strong sedative effects | – | 42 mg/kg | – | – | 2.74 mg/kg | manifests itself especially | 50 mg/kg | – | – | –
CCN1CCN(C2=Nc3ccccc3C(=CC#N)c3ccccc32)CC1 (mixture of isomers) [Example 36 (cis-trans mixture), cis,trans-11-Cyanomethylene-6-(4-ethyl-piperazin-1-yl)-morphanthridine] | 3.34 mg/kg | relatively strong sedative effects | – | 43 mg/kg | – | 100 mg/kg | 7.8 mg/kg | manifests itself especially | – | – | – | –
N#CC=C1c2ccccc2N=C(N2CCCNCC2)c2ccccc21 (mixture of isomers) [Example 37 (cis-trans mixture), cis,trans-11-Cyanomethylene-6-homopiperazin-1-yl-morphanthridine.HCl.H2 O] | > 21.5 mg/kg | – | – | > 100 mg/kg | – | – | 5.49 mg/kg | manifests itself especially | 69.8 mg/kg | 2.57 | – | –
N#CC=C1c2ccccc2N=C(NCCN2CCCCC2)c2ccccc21 (mixture of isomers) [Example 39 (cis-trans mixture), cis,trans-11-Cyanomethylene-6-(2-piperidin-1-ylethylamino)-morphanthridine.1/2H2 O] | 1.61 mg/kg | strong sedative effects | – | 46 mg/kg | – | – | > 10 mg/kg | – | 5.35 mg/kg | > 1.41 | > 0.21 | –
C[N+]1([O-])CCN(C2=Nc3ccccc3C(=CC#N)c3ccccc32)CC1 (mixture of isomers) [Example 44 (cis-trans mixture), cis,trans-11-Cyanomethylene-6-(4-methyl-4-oxy-piperazin-1-yl)-morphanthridine.2H2 O] | 14.3 mg/kg | – | – | 85 mg/kg | – | – | 1.98 mg/kg | manifests itself especially | 464 mg/kg | 7.12 | – | –
CN1CCN(C2=Nc3cc(Cl)ccc3Nc3ccccc32)CC1 [Clozapin, reference compound] | 4.74 mg/kg | – | – | 8 mg/kg | – | – | 14.1 mg/kg | – | 215 mg/kg | 1.00 | – | –
CN1CCN(C2=Nc3ccccc3/C(=C/C#N)c3ccccc32)CC1 [Example 17 (cis-isomer), cis 11-cyanomethylene-6-(4-methylpiperazin-1-yl)-morphanthridine] | 1.98 mg/kg | strong sedative effects; also recorded: responsible for the sedative effect | – | 46 mg/kg | lower apomorphine-antagonistic effect | 147 mg/kg | 17.4 mg/kg | relative to Clozapin, an approximately comparable anti-cholinergic effect | – | – | – | –
CN1CCN(C2=Nc3ccccc3/C(=C\C#N)c3ccccc32)CC1 [Example 17 (trans-isomer), trans-11-cyanomethylene-6-(4-methyl-piperazin-1-yl)-morphanthridine] | > 21.5 mg/kg | very slight | – | 12 mg/kg | particularly exhibits an anti-cholinergic and apomorphine-antagonistic effect | – | 4.7 mg/kg | manifests itself especially; also recorded: particularly exhibits an anti-cholinergic and apomorphine-antagonistic effect | 332 mg/kg | – | – | –
Cc1ccc2c(c1)N=C(N1CCN(C)CC1)c1ccccc1/C2=C\C#N [Example 30 (cis-isomer), cis-3-methyl-11-cyanomethylene-6-(4-methyl-piperazin-1-yl)-morphanthridine] | 1.06 mg/kg | strong sedative and strong analgesic effects | substantially more active than Clozapin; also recorded: strong sedative and strong analgesic effects | 85 mg/kg | weaker apomorphine-antagonistic effect than that of Clozapin and Perlapin | 287 mg/kg | – | – | – | – | – | –
Cc1ccc2c(c1)N=C(N1CCN(C)CC1)c1ccccc1/C2=C/C#N [Example 30 (trans-isomer), trans-3-methyl-11-cyanomethylene-6-(4-methylpiperazin-1-yl)-morphanthridine] | 33.6 mg/kg | little or no sedative effect | – | 19 mg/kg | stronger anti-cholinergic and apomorphine-antagonistic effect | – | 12.3 mg/kg | stronger anti-cholinergic and apomorphine-antagonistic effect | > 100 mg/kg | – | – | –
CCN1CCN(C2=Nc3ccccc3/C(=C\C#N)c3ccccc32)CC1 [Example 36 (trans-isomer), trans-11-cyanomethylene-6-(4-ethyl-piperazin-1-yl)-morphanthridine] | > 100 mg/kg | little or no sedative effect | – | 22 mg/kg | stronger anti-cholinergic and apomorphine-antagonistic effect | – | 5.6 mg/kg | manifests itself especially; also recorded: stronger anti-cholinergic and apomorphine-antagonistic effect | > 100 mg/kg | – | – | –
C[N+]1([O-])CCN(C2=Nc3ccccc3/C(=C/C#N)c3ccccc32)CC1 [Example 44 (cis-isomer), cis-11-cyanomethylene-6-(4-methyl-4-oxy-piperazin-1-yl)-morphanthridine] | 17.6 mg/kg | – | – | > 100 mg/kg | – | – | 100 mg/kg | – | 261 mg/kg | 0.14 | – | –
C[N+]1([O-])CCN(C2=Nc3ccccc3/C(=C\C#N)c3ccccc32)CC1 [Example 44 (trans-isomer), trans-11-cyanomethylene-6-(4-methyl-4-oxy-piperazin-1-yl)-morphanthridine] | 100 mg/kg | little or no sedative effect | – | 25 mg/kg | stronger anti-cholinergic and apomorphine-antagonistic effect | – | 3.74 mg/kg | manifests itself especially; also recorded: stronger anti-cholinergic and apomorphine-antagonistic effect | 559 mg/kg | 3.77 | – | –
CN1CCN(C2=Nc3ccccc3Cc3ccccc32)CC1 [Perlapin, reference compound] | 2.05 mg/kg | – | – | 22 mg/kg | – | – | > 21.5 mg/kg | – | 215 mg/kg | < 0.66 | – | > 21.5
